Results on 1 compound are retold here after paper PMC8801607, “New Chitosan Polymer Scaffold Schiff Bases as Potential Cytotoxic Activity: Synthesis, Molecular Docking, and Physiochemical Characterization” (Frontiers in Chemistry, 2022).

The test system of the experiment is MCF-7 cancer cell line. In words: cells. Here is the method: MCF-7 breast cell line was employed in this study. The MCF-7 cell line was pre-incubated on a micro titer plate in this technique. Each test’s results are expressed as a percentage of the treated cells’ growth relative to the untreated control cells. […] 0.1 ml of the cell suspension (containing 5 × 10^6 cells/100 µL)and 0.1 ml of the test solution (6.25–100 µg in 1% DMSO such that the final concentration of DMSO in media was less than 1%) were added to the […] and incubated at 37°C for 72 h in a 5 percent CO2 incubator. The control wells included 1 percent DMSO and cell suspension, while the blank contained simply cell suspension. After 72 h, 20 µL of MTT were added and left in the CO2 incubator for 2 h before adding 100 µL of propanol. To protect the plate from light, it was wrapped in aluminum foil. The […] were then shaken for 10–25 min in a rotary shaker. The […] were processed on an ELISA reader for absorbance at 562 nm after 10–20 min.

One may read the GI50 as the concentration giving 50% growth inhibition. Low readings indicate more potent growth inhibition, high ones less potent growth inhibition. Turning to `COc1cccc2c1C(=O)c1c(O)c3c(c(O)c1C2=O)C[C@@](O)(C(=O)CO)C[C@@H]3O[C@H]1C[C@H](N)[C@H](O)[C@H](C)O1` [Doxorubicin], the GI50 (Homo sapiens, MCF7) was 40 nM. In addition, the “TGI (total growth of inhibition)” value (MCF-7 cell line, MTT assay, mean ± SD of three separate experiments) worked out at 250 ± 230 nM.
